In patent publication US20230017045A1, “PYRIDINE AND PYRIMIDINE CARBOXYLATE HERBICIDES AND METHODS OF USE THEREOF” (Dow AgroSciences LLC, priority 2017, published 2023):

system: test plant species; experiment: Post-emergent herbicidal activity test (greenhouse, foliar spray, visual growth reduction); type: in vivo; conditions: post-emergence, 336 h, ECHCG: barnyardgrass (Echinochloa crus-galli), 140 g ai/ha, 14 days after application, read-out: Visual Growth Reduction (%) 14 Days After Application, ECHCG
Procedure, shortened: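 Greenhouse plants at first–second true leaf stage sprayed overhead at 187 L/ha with compound in acetone/water/isopropanol/DMSO/crop oil/X-77 carrier; controls received solvent blank. Injury rated visually after 14 d on a 0–100% scale versus untreated and control plants, converted to growth reduction.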

| Compound | pest or weed control at 140 g/ha [%] |
| --- | --- |
| COc1c(Cl)cc(Cl)c(-c2nc(C(=O)OCc3ccccc3)c(Cl)cc2F)c1F [F300, Benzyl 3-chloro-6-(4,6-dichloro-2-fluoro-3-methoxyphenyl)-5-fluoropicolinate] | 0 to 29 |
| O=C(OCc1ccccc1C(F)(F)F)c1nc(-c2ccc(C(F)(F)F)cc2Cl)ccc1Cl [F380, 2-(Trifluoromethyl) benzyl 3-chloro-6-(2-chloro-4-(trifluoromethyl)phenyl)picolinate] | 75 to 84 |

same assay, conditions: post-emergence, 336 h, IPOHE: ivy-leaf morning glory (Ipomoea hederacea), 140 g ai/ha, 14 days after application, read-out: Visual Growth Reduction (%) 14 Days After Application, IPOHE

| Compound | pest or weed control at 140 g/ha [%] |
| --- | --- |
| COc1c(Cl)cc(Cl)c(-c2nc(C(=O)OCc3ccccc3)c(Cl)cc2F)c1F [F300, Benzyl 3-chloro-6-(4,6-dichloro-2-fluoro-3-methoxyphenyl)-5-fluoropicolinate] | 60 to 74 |
| O=C(OCc1ccccc1C(F)(F)F)c1nc(-c2ccc(C(F)(F)F)cc2Cl)ccc1Cl [F380, 2-(Trifluoromethyl) benzyl 3-chloro-6-(2-chloro-4-(trifluoromethyl)phenyl)picolinate] | 95 to 100 |

same assay, conditions: post-emergence, 336 h, KCHSC: kochia (Bassia scoparia), 140 g ai/ha, 14 days after application, read-out: Visual Growth Reduction (%) 14 Days After Application, KCHSC

| Compound | pest or weed control at 140 g/ha [%] |
| --- | --- |
| COc1c(Cl)cc(Cl)c(-c2nc(C(=O)OCc3ccccc3)c(Cl)cc2F)c1F [F300, Benzyl 3-chloro-6-(4,6-dichloro-2-fluoro-3-methoxyphenyl)-5-fluoropicolinate] | 30 to 44 |
| O=C(OCc1ccccc1C(F)(F)F)c1nc(-c2ccc(C(F)(F)F)cc2Cl)ccc1Cl [F380, 2-(Trifluoromethyl) benzyl 3-chloro-6-(2-chloro-4-(trifluoromethyl)phenyl)picolinate] | 75 to 84 |

same assay, conditions: post-emergence, 336 h, ORYSA: rice (Oryza sativa), 140 g ai/ha, 14 days after application, read-out: Visual Growth Reduction (%) 14 Days After Application, ORYSA

| Compound | pest or weed control at 140 g/ha [%] |
| --- | --- |
| COc1c(Cl)cc(Cl)c(-c2nc(C(=O)OCc3ccccc3)c(Cl)cc2F)c1F [F300, Benzyl 3-chloro-6-(4,6-dichloro-2-fluoro-3-methoxyphenyl)-5-fluoropicolinate] | 0 to 29 |
| O=C(OCc1ccccc1C(F)(F)F)c1nc(-c2ccc(C(F)(F)F)cc2Cl)ccc1Cl [F380, 2-(Trifluoromethyl) benzyl 3-chloro-6-(2-chloro-4-(trifluoromethyl)phenyl)picolinate] | 0 to 29 |

same assay, conditions: post-emergence, 336 h, SETFA: giant foxtail (Setaria faberi), 140 g ai/ha, 14 days after application, read-out: Visual Growth Reduction (%) 14 Days After Application, SETFA

| Compound | pest or weed control at 140 g/ha [%] |
| --- | --- |
| COc1c(Cl)cc(Cl)c(-c2nc(C(=O)OCc3ccccc3)c(Cl)cc2F)c1F [F300, Benzyl 3-chloro-6-(4,6-dichloro-2-fluoro-3-methoxyphenyl)-5-fluoropicolinate] | 0 to 29 |
| O=C(OCc1ccccc1C(F)(F)F)c1nc(-c2ccc(C(F)(F)F)cc2Cl)ccc1Cl [F380, 2-(Trifluoromethyl) benzyl 3-chloro-6-(2-chloro-4-(trifluoromethyl)phenyl)picolinate] | 95 to 100 |

same assay, conditions: post-emergence, 336 h, SORVU: grain sorghum (Sorghum vulgare), 140 g ai/ha, 14 days after application, read-out: Visual Growth Reduction (%) 14 Days After Application, SORVU

| Compound | pest or weed control at 140 g/ha [%] |
| --- | --- |
| COc1c(Cl)cc(Cl)c(-c2nc(C(=O)OCc3ccccc3)c(Cl)cc2F)c1F [F300, Benzyl 3-chloro-6-(4,6-dichloro-2-fluoro-3-methoxyphenyl)-5-fluoropicolinate] | 0 to 29 |
| O=C(OCc1ccccc1C(F)(F)F)c1nc(-c2ccc(C(F)(F)F)cc2Cl)ccc1Cl [F380, 2-(Trifluoromethyl) benzyl 3-chloro-6-(2-chloro-4-(trifluoromethyl)phenyl)picolinate] | 95 to 100 |

same assay, conditions: post-emergence, 336 h, STEME: common chickweed (Stellaria media), 140 g ai/ha, 14 days after application, read-out: Visual Growth Reduction (%) 14 Days After Application, STEME

| Compound | pest or weed control at 140 g/ha [%] |
| --- | --- |
| COc1c(Cl)cc(Cl)c(-c2nc(C(=O)OCc3ccccc3)c(Cl)cc2F)c1F [F300, Benzyl 3-chloro-6-(4,6-dichloro-2-fluoro-3-methoxyphenyl)-5-fluoropicolinate] | 0 to 29 |
| O=C(OCc1ccccc1C(F)(F)F)c1nc(-c2ccc(C(F)(F)F)cc2Cl)ccc1Cl [F380, 2-(Trifluoromethyl) benzyl 3-chloro-6-(2-chloro-4-(trifluoromethyl)phenyl)picolinate] | 0 to 29 |

same assay, conditions: post-emergence, 336 h, TRZAS: wheat, spring (Triticum aestivum), 140 g ai/ha, 14 days after application, read-out: Visual Growth Reduction (%) 14 Days After Application, TRZAS

| Compound | pest or weed control at 140 g/ha [%] |
| --- | --- |
| COc1c(Cl)cc(Cl)c(-c2nc(C(=O)OCc3ccccc3)c(Cl)cc2F)c1F [F300, Benzyl 3-chloro-6-(4,6-dichloro-2-fluoro-3-methoxyphenyl)-5-fluoropicolinate] | 0 to 29 |
| O=C(OCc1ccccc1C(F)(F)F)c1nc(-c2ccc(C(F)(F)F)cc2Cl)ccc1Cl [F380, 2-(Trifluoromethyl) benzyl 3-chloro-6-(2-chloro-4-(trifluoromethyl)phenyl)picolinate] | 60 to 74 |

same assay, conditions: post-emergence, 336 h, blackgrass (Alopecurus myosuroides), 14 Days After Application, 140 g ai/ha, read-out: Visual Growth Reduction (%) ALOMY

| Compound | pest or weed control at 140 g/ha [%] |
| --- | --- |
| COc1c(Cl)cc(Cl)c(-c2nc(C(=O)OCc3ccccc3)c(Cl)cc2F)c1F [F300, Benzyl 3-chloro-6-(4,6-dichloro-2-fluoro-3-methoxyphenyl)-5-fluoropicolinate] | 0 to 29 |
| O=C(OCc1ccccc1C(F)(F)F)c1nc(-c2ccc(C(F)(F)F)cc2Cl)ccc1Cl [F380, 2-(Trifluoromethyl) benzyl 3-chloro-6-(2-chloro-4-(trifluoromethyl)phenyl)picolinate] | 45 to 59 |

same assay, conditions: post-emergence, 336 h, canada thistle (Cirsium arvense), 14 Days After Application, 140 g ai/ha, read-out: Visual Growth Reduction (%) CIRAR

| Compound | pest or weed control at 140 g/ha [%] |
| --- | --- |
| COc1c(Cl)cc(Cl)c(-c2nc(C(=O)OCc3ccccc3)c(Cl)cc2F)c1F [F300, Benzyl 3-chloro-6-(4,6-dichloro-2-fluoro-3-methoxyphenyl)-5-fluoropicolinate] | 45 to 59 |
| O=C(OCc1ccccc1C(F)(F)F)c1nc(-c2ccc(C(F)(F)F)cc2Cl)ccc1Cl [F380, 2-(Trifluoromethyl) benzyl 3-chloro-6-(2-chloro-4-(trifluoromethyl)phenyl)picolinate] | 85 to 94 |

same assay, conditions: post-emergence, 336 h, crabgrass (Digitaria sanguinalis), 14 Days After Application, 140 g ai/ha, read-out: Visual Growth Reduction (%) DIGSA

| Compound | pest or weed control at 140 g/ha [%] |
| --- | --- |
| COc1c(Cl)cc(Cl)c(-c2nc(C(=O)OCc3ccccc3)c(Cl)cc2F)c1F [F300, Benzyl 3-chloro-6-(4,6-dichloro-2-fluoro-3-methoxyphenyl)-5-fluoropicolinate] | 0 to 29 |
| O=C(OCc1ccccc1C(F)(F)F)c1nc(-c2ccc(C(F)(F)F)cc2Cl)ccc1Cl [F380, 2-(Trifluoromethyl) benzyl 3-chloro-6-(2-chloro-4-(trifluoromethyl)phenyl)picolinate] | 95 to 100 |

same assay, conditions: post-emergence, 336 h, lambsquarters (Chenopodium album), 14 Days After Application, 140 g ai/ha, read-out: Visual Growth Reduction (%) CHEAL

| Compound | pest or weed control at 140 g/ha [%] |
| --- | --- |
| COc1c(Cl)cc(Cl)c(-c2nc(C(=O)OCc3ccccc3)c(Cl)cc2F)c1F [F300, Benzyl 3-chloro-6-(4,6-dichloro-2-fluoro-3-methoxyphenyl)-5-fluoropicolinate] | 75 to 84 |
| O=C(OCc1ccccc1C(F)(F)F)c1nc(-c2ccc(C(F)(F)F)cc2Cl)ccc1Cl [F380, 2-(Trifluoromethyl) benzyl 3-chloro-6-(2-chloro-4-(trifluoromethyl)phenyl)picolinate] | 95 to 100 |

same assay, conditions: post-emergence, 336 h, redroot pigweed (Amaranthus retroflexus), 14 Days After Application, 140 g ai/ha, read-out: Visual Growth Reduction (%) AMARE

| Compound | pest or weed control at 140 g/ha [%] |
| --- | --- |
| COc1c(Cl)cc(Cl)c(-c2nc(C(=O)OCc3ccccc3)c(Cl)cc2F)c1F [F300, Benzyl 3-chloro-6-(4,6-dichloro-2-fluoro-3-methoxyphenyl)-5-fluoropicolinate] | 0 to 29 |
| O=C(OCc1ccccc1C(F)(F)F)c1nc(-c2ccc(C(F)(F)F)cc2Cl)ccc1Cl [F380, 2-(Trifluoromethyl) benzyl 3-chloro-6-(2-chloro-4-(trifluoromethyl)phenyl)picolinate] | 95 to 100 |

same assay, conditions: post-emergence, 336 h, wild oat (Avena fatua), 14 Days After Application, 140 g ai/ha, read-out: Visual Growth Reduction (%) AVEFA

| Compound | pest or weed control at 140 g/ha [%] |
| --- | --- |
| COc1c(Cl)cc(Cl)c(-c2nc(C(=O)OCc3ccccc3)c(Cl)cc2F)c1F [F300, Benzyl 3-chloro-6-(4,6-dichloro-2-fluoro-3-methoxyphenyl)-5-fluoropicolinate] | 0 to 29 |
| O=C(OCc1ccccc1C(F)(F)F)c1nc(-c2ccc(C(F)(F)F)cc2Cl)ccc1Cl [F380, 2-(Trifluoromethyl) benzyl 3-chloro-6-(2-chloro-4-(trifluoromethyl)phenyl)picolinate] | 60 to 74 |

same assay, conditions: post-emergence, 336 h, yellow nutsedge (Cyperus esculentus), 14 Days After Application, 140 g ai/ha, read-out: Visual Growth Reduction (%) CYPES

| Compound | pest or weed control at 140 g/ha [%] |
| --- | --- |
| COc1c(Cl)cc(Cl)c(-c2nc(C(=O)OCc3ccccc3)c(Cl)cc2F)c1F [F300, Benzyl 3-chloro-6-(4,6-dichloro-2-fluoro-3-methoxyphenyl)-5-fluoropicolinate] | 0 to 29 |
| O=C(OCc1ccccc1C(F)(F)F)c1nc(-c2ccc(C(F)(F)F)cc2Cl)ccc1Cl [F380, 2-(Trifluoromethyl) benzyl 3-chloro-6-(2-chloro-4-(trifluoromethyl)phenyl)picolinate] | 0 to 29 |
